Assay: In vitro binding affinity towards FKBP12 domain of peptidyl-propyl isomerase (PPIase)

IC50 [nM] | SMILES
980 | CCC(C)(C)C(=O)C(=O)N1C2CCC(C2)[C@H]1C(=O)SCCC(c1ccccc1)c1ccccc1 (stereo partly specified)
910 | O=C(SCCCc1ccccc1)[C@@H]1C2CCC(C2)N1S(=O)(=O)c1ccccc1 (stereo partly specified)
> 25000 | CCC(C)(C)C(=O)C(=O)N1C2CCC(C2)[C@@H]1C(=O)OCCCc1ccccc1 (stereo partly specified)
710 | CCC(C)(C)C(=O)C(=O)N1C2CCC(C2)[C@H]1C(=O)OCCCCc1ccccc1 (stereo partly specified)
> 25000 | CCC(C)(C)C(=O)C(=O)N1C2CCC(C2)[C@@H]1C(=O)SCCC(c1ccccc1)c1ccccc1 (stereo partly specified)
0.28 | COc1cc(C(=O)C(=O)N2C3CCCC2C(=O)OCCCCOC3=O)cc(OC)c1OC
15000 | CCC(C)(C)C(=O)C(=O)N1C2CCC(C2)[C@H]1C(=O)OCCCc1ccncc1 (stereo partly specified)
22000 | CCC(C)(C)C(=O)C(=O)N1C2CCC(C2)[C@@H]1C(=O)SCCCc1ccccc1 (stereo partly specified)
9.2 | O=C1CC2CCCC(Sc3ccccc3)(C1)C2 (stereo unspecified)
670 | CCC(C)(C)C(=O)C(=O)N1C2CCC(C2)[C@H]1C(=O)OCCCc1ccccc1 (stereo partly specified)
720 | O=C(SCCCc1ccccc1)[C@@H]1C2CCC(C2)N1S(=O)(=O)Cc1ccccc1 (stereo partly specified)
650 | O=C(OCCCc1ccccc1)[C@@H]1C2CCC(C2)N1S(=O)(=O)c1ccccc1 (stereo partly specified)
> 25000 | CCC(C)(C)C(=O)C(=O)N1C2CCC(C2)[C@@H]1C(=O)OCCCc1ccncc1 (stereo partly specified)
2300 | CCC(C)(C)C(=O)C(=O)N1C2CCC(C2)[C@H]1C(=O)SCCCc1ccccc1 (stereo partly specified)
5100 | CCC(C)(C)C(=O)C(=O)N1C2CCC(C2)[C@@H]1C(=O)OCCCCc1ccccc1 (stereo partly specified)
1300 | O=C(OCCCc1ccccc1)[C@@H]1C2CCC(C2)N1S(=O)(=O)Cc1ccccc1 (stereo partly specified)

From ChEMBL document CHEMBL1136341, “Synthesis and evaluation of chiral bicyclic proline FKBP12 ligands” (Bioorg Med Chem Lett, 2003)
